In patent publication US8012503B2, “Method of enhancing absorptions of transmucosal administration formulations” (The Chinese University of Hong Kong, priority 2004, dated 2011):
Values after ≈ are worked out from the molar mass of the structure shown.

Columns and labels:
[1] = pHmax calculated from Ka, Si and Su; type: physicochemical; conditions: calculated after determining Si and Su
Source text: [formula] in which Ka is the ionization constant (dissociation constant) of the active compound in water, Si is the solubility of the ionized form of the compound, and Su is the solubility of the non-ionized form of the compound.
(§1) [formula] in which Ka is the ionization constant (dissociation constant) of the active compound of the medicament in water, Si is the solubility of the ionized form of the compound, and Su is the solubility of the non-ionized form of the compound. Si and Su can be easily obtained by measuring the drug solubility at two extreme pH levels where the ionized or non-ionized species are dominating. For example, after determining the Si and Su of propranolol and sildenafil, their pHmax values are calculated to be 7.62 and 4.25, respectively.
(§2) It has been investigated that permeability across the sublingual mucosa is dependent on the concentration of non-ionized propranolol in the environment. When a formulation of propranolol provides saliva with pH of about 7.2 to about 7.8, propranolol should maintain relatively high solubility as well as high fraction of non-ionized form in the saliva of human oral cavity. Preferably, the formulation for sublingual delivery is at about pH 7.6. This can be confirmed by equation (I). For propranolol.

[2] = Solubility of ionized and non-ionized forms and ionization constant; type: physicochemical
Source text: as §1, §2

[3] = oral administration of propranolol tablets, cited from earlier work

Row | pHmax [1] | solubility [2] [µg/mL] | SMILES | onset of action [3] | plasma half-life [3] [h] | bioavailability ([3]; hepatic first-pass effect)
1 | 7.62 | 539 (≈ 2080 µM) | CC(C)NCC(O)COc1cccc2ccccc12 (stereo not drawn) [propranolol, 1-(isopropylamino)-3-(1-naphthyloxy)-2-propanol] | over 1 hr | 2.8 to 4.4 | 10-30%
2 | 4.25 |  | CCCc1nn(C)c2c(=O)[nH]c(-c3cc(S(=O)(=O)N4CCN(C)CC4)ccc3OCC)nc12 [sildenafil] |  |  | 
